Patent US11413348B2, “Low molecular weight cationic lipids for oligonucleotide delivery” (SIRNA THERAPEUTICS, INC., priority 2010, dated 2022)

These molecules were tested against T1, serum ApoE (Macaca mulatta, UniProt Q28502) (assay: Heparin Sepharose HI-TRAP binding assay). Details: HI-TRAP binding upon rhesus serum incubation, 2×DPBS conditions.
T1 construct: from tissue; host or cells: rhesus monkey serum
Design: species or system rhesus monkey
Description: Lipid nanoparticles (LNP) with neutral surface charge are not retained after injection onto heparin sepharose with 1× Dulbecco's phosphate buffered saline (DPBS) as the running buffer but elute in the column void volume. […] Lipid nanoparticles with surface bound ApoE bind to heparin sepharose with high affinity and are eluted only at high salt (1M NaCl).
Lipid nanoparticles were incubated at 37° C. for 20 min at a final siRNA concentration of 50 μg/mL with various concentrations of either purified or recombinant human apolipoprotein E or 0.1-50% rat/mouse/rhesus monkey/human serum in 1× Dulbccco's phosphate buffered saline (DPBS). After incubation with ApoE or serum LNP samples were diluted 10-fold using 1×DPBS and analyzed by heparin sepharose chromatography. Peak area of retained LNP (after subtraction of appropriate blank signals) is compared to total peak area of LNP control without ApoE and/or serum incubation to determine the percentage of the LNP which undergoes shift to high affinity heparin interaction after incubation with ApoE/serum.
A heparin sepharose HI-TRAP™ chromatography column (GE Healthcare; 1 mL bed volume) is equilibrated with either 1× or 2× Dulbecco's PBS; the higher 2× salt concentration is used for LNPs with higher intrinsic retention on heparin sepharose (presumably due to higher positive surface charge). • Mobile Phase A: 1× or 2×DPBS • Mobile Phase B: 1M NaCl in 10 mM sodium phosphate buffer, pH 7.0 • 100% A delivered isocratically for 10 min followed by step gradient to 100% B; hold for additional 10 min; step gradient back to 100% A and reequilibrate for additional 10 min prior to injection of next sample • Flow rate: 1 mL/min • Sample injection volume: 50 μL. • Detection: UV @260 nm HI-TRAP™ Binding Results Upon Rhesus Serum Incubation (2×DPBS Conditions)

T1 sequence (Q28502 19-295): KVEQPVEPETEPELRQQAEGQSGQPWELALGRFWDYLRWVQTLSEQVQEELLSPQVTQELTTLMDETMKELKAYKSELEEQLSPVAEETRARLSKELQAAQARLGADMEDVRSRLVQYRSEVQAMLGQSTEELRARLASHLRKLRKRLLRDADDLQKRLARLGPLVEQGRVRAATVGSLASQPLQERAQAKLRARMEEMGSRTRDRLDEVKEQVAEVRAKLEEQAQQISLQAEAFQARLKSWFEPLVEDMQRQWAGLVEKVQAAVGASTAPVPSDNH

% Bound [%] | Structure (SMILES)
58 | CCCCC/C=C\C/C=C\CCCCCCCCC1(CCCCCCCC/C=C\C/C=C\CCCCC)OCC(CCN(C)C)O1 (centres unmarked) [Compound 45, DLinKC2DMA, reference compound]
7 | CCCCC/C=C\C/C=C\CCCCCCCCC(CCCCCCCC/C=C\C/C=C\CCCCC)OC(=O)CCCN(C)C [Compound 46, MC3, reference compound]

What follows are molecules tested on mRNA transcript for the firefly (Photinus pyralis) luciferase gene (assay: Mouse in vivo evaluation of efficacy (luciferase siRNA LNPs, liver luminescence)). Details: Luc siRNA RDV, tail vein, 48 hours post dose, FIG. 1.
Description: LNPs utilizing Compounds 1-44, in the nominal compositions described immediately above, were evaluated for in vivo efficacy. The siRNA targets the mRNA transcript for the firefly (Photinus pyralis) luciferase gene (Accession #M15077). […] The in vivo luciferase model employs a transgenic mouse in which the firefly luciferase coding sequence is present in all cells. ROSA26-LoxP-Stop-LoxP-Luc (LSL-Luc) transgenic mice licensed from the Dana Farber Cancer Institute are induced to express the Luciferase gene by first removing the LSL sequence with a recombinant Ad-Cre virus (Vector Biolabs). Due to the organo-tropic nature of the virus, expression is limited to the liver when delivered via tail vein injection. Luciferase expression levels in liver are quantitated by measuring light output, using an IVIS imager (Xenogen) following administration of the luciferin substrate (Caliper Life Sciences). Pre-dose luminescence levels are measured prior to administration of the RDVs. Luciferin in PBS (15 mg/mL) is intraperitoneally (IP) injected in a volume of 150 μL. After a four minute incubation period mice are anesthetized with isoflurane and placed in the IVIS imager. The RDVs (containing siRNA) in PBS vehicle were tail vein injected in a volume of 0.2 mL. […] In vivo efficacy results are expressed as % inhibition of luminescence relative to pre-dose luminescence levels. […]

Structure (SMILES) | efficacy (% inhibition of luminescence) compared with RDV containing octyl-CLinDMA (OCD)
CCCCC/C=C\C/C=C\CCCCCCCCCC(CCCCCCCCC)N(C)C (centres unmarked) [Compound 1, (20Z,23Z)—N,N-dimethylnonacosa-20,23-dien-10-amine] | Greater efficacy

The molecules below were run against T2, ApoE (Macaca mulatta, UniProt Q28502) (assay: In vitro ApoE binding assay (anti-PEG capture, ApoE ELISA, stem-loop RT-PCR)). Details: LNP 4 ug/mL in 90% rhesus serum, 37° C., 20 minutes; estimate of 500 siRNA per LNP.
T2 construct: from tissue; host or cells: rhesus serum
Description: LNPs are incubated at 37° C. in 90% rhesus serum at a final LNP concentration of 4 ug/mL. Incubation is for 20 minutes with orbital rotation. After incubation, the samples are diluted 1:20 in PBS and 100 uL of each diluted sample is aliquoted to wells of an anti-PEG antibody coated 96-well plate (Life Diagnostics Cat. No. P-0001PL. After incubation at room temperature for 1 hour, the plate is washed 5× with 300 uL PBS. After washing, 50 uL of 0.2% Triton X-100 is added to each well and the plate incubated at 37° C. for 10 minutes, followed by shaking on a plate shaker for 1 minute at 750 rpm. Samples are frozen prior to performing the ApoE ELISA and stem loop PCR analysis of samples.
An ApoE ELISA assay is performed to quantitate ApoE bound to the LNPs after incubation in rhesus serum. Anti-ApoE antibody (Milipore, Cat No. AB947) is diluted 1:1000 in PBS and 100 uL of diluted antibody is added to each well of a polystyrene high binding plate. The plate with antibody is incubated overnight at 4° C., after which the plate is washed 2× with 200 uL of PBS. Next, 200 uL of buffer containing 1% BSA and 0.05% Tween-20 in PBS (Incubation Buffer) is added to each well followed by incubation at room temperature for 1 hour. Plates are washed 5× with PBS containing 0.05% Tween-20. Frozen Triton lysis test samples are thawed and diluted 1:6 with incubation buffer and 100 uL of test sample is aliquoted to wells of the ApoE antibody plate. Incubation is for 1 hour at room temperature followed by a 5× wash with PBS containing 0.05% Tween-20. After washing, 100 uL of biotinylated anti-ApoE antibody (Mabtech, Cat. ANo. E887-biotin), diluted 1:500 in incubation buffer, is added to each well and incubated for 1 hour at room temperature, followed by a 5× wash with 0.05% Tween-20 in PBS. 100 uL per well, of Streptavidin-HPR (Thermo, Cat. No. TS-125-HR), is then added and incubated for 1 hour at room temperature. After washing 5× with 0.05% Tween-20 in PBS, 100 uL of TMB Substrate (Thermo, Cat. No. 34028) is added to each well, followed by incubation at room temperature for 20 minutes in the dark. The calorimetric reaction is slopped with 100 uL of TMB Stop Solution (KPL, Cat. No. 50-85-04) and absorbance at 450 nm is determined. An ApoE standard curve is prepared by diluting rhesus Recombinant ApoE in incubation buffer with 0.03% Triton X-100 with concentrations ranging from 100 ng/mL to 0.78 ng/mL. ApoE standards are evaluated in the ELISA in parallel to the test samples. A rhesus serum only (no LNP) control is utilized to obtain a background subtraction for non-LNP dependent ApoE signal in the ELISA.
To normalize to the ApoE bound to the amount of LNP bound to the anti-PEG antibody plate, the amount of siRNA retained in the anti-PEG antibody well is quantitated by stem-loop PCR and related to the number of siRNAs encapsulated per LNP, to give an approximate measure of total LNP particles bound per well.
The standard curve is prepared using the molecular weight of the siRNA (13693 g/mol for ApoB 17063) to calculate the copy number. The high standard should contain 10^11 copies per 3 μl. A 10-fold serial dilution is performed across a row of an assay plate until the lowest standard contains 10^2 copies per 3 μl. Dilute 0.2% Triton X-100 1:80 in water and pipette 20 uL of the diluted Triton X-100 into 10 wells of a 96 well plate. 30 uL of the serial diluted standard curve and mix are added to each well of the plate. 10 uL of the spiked standard curve is used in the reverse transcription reaction.
Triton lysates from the PEG antibody plate capture are diluted 1 to 2000 in nuclease free water. 10 uL of ‘RT-Primer Mix’ (Applied Biosystem's TaqMan MicroRNA Reverse Transcription Kit Cat. No. 4366596) is added to each well of a 96-well Micro-Amp QPCR plate (ABI Cat #N801-0560).
[…] of each test sample (diluted 1 to 2000) or spiked standard curve (above) are aliquoted into the 96-well plate. […]

T2 sequence (Q28502 19-295): as above

ApoE Molecules/LNP [Molecules/LNP] | Structure (SMILES)
4.9 | CCCCC/C=C\C/C=C\CCCCCCCC(CCCCCCCCC)N(C)C (centres unmarked) [Compound 8, (18Z,21Z)—N,N-dimethylheptacosa-18,21-dien-10-amine]
3.3 | CCCCC/C=C\C/C=C\CCCCCCCCCCCC(CCCCCCCC)N(C)C (centres unmarked) [Compound 16, (21Z,24Z)—N,N-dimethyltriaconta-21,24-dien-9-amine]
1.2 | CCCCCCCCCCC/C=C\CCCCC(CCCCCCCCC)N(C)C (centres unmarked) [Compound 24, (15Z)—N,N-dimethylheptacos-15-en-10-amine]
13.7 | CCCCCCCCCCCCCC/C=C\CCCC(CCCCCCCCC)N(C)C (centres unmarked) [Compound 25, (14Z)—N,N-dimethylnonacos-14-en-10-amine]
4.7 | CCCCCCCC/C=C\CCCCCCCCCC(CCCCCCCCC)N(C)C (centres unmarked) [Compound 28, (20Z)—N,N-dimethylnonacos-20-en-10-amine]
38 | CCCCCCCC/C=C\CCCCCCCCCCCC(CCCCCCCCC)N(C)C (centres unmarked) [Compound 29, (22Z)—N,N-dimethylhentriacont-22-en-10-amine]
2.3 | CCCCCCCCCC(CCCCCCCCC[C@H]1C[C@H]1CCCCCC)N(C)C (stereo partly drawn) [Compound 34, 1-[(1S,2R)-2-hexylcyclopropyl]-N,N-dimethylnonadecan-10-amine]
32.5 | CCCCC/C=C\C/C=C\CCCCCCCCC1(CCCCCCCC/C=C\C/C=C\CCCCC)OCC(CCN(C)C)O1 (centres unmarked) [Compound 45, DLinKC2DMA, reference compound]
